Our source for the cytotoxicity values is ChEMBL document CHEMBL3507680, “University of Dundee, Gates Library screen for HepG2 cell viability”.

A short description of this series: Human HepG2 cell viability assay in 384 well format. The series is classed as toxicity, cell-based. Further details: dose 125 nL, time 70.5 hour; cytotoxicity at 70.5 h: concentration not given beside the values. Conditions: HepG2 cells, read-out: Inhibition.

SMILES strings stand for the structures.

Turning to `Cc1cnc(C(=O)N2CCOCC2C)cn1` (stereo not given), the cytotoxicity at 70.5 h is -16.2%.

`N#Cc1ccc(CN2CCC(CN3CCOCC3)C2)cc1` (stereo not given): the cytotoxicity at 70.5 h is -5.35%.

For the compound `CC(c1ccco1)N(C)C(=O)NCCOc1ccc(C#N)cc1` (stereo not given), the cytotoxicity at 70.5 h is -8.15%.

Consider `COc1c(C(=O)NC(C)CC(=O)c2cccs2)c(C)nn1C` (stereo not given), for which the cytotoxicity at 70.5 h was -0.066%.

Take `Cc1cnc(C(=O)N2CCOCC2c2ccccc2)cn1` (stereo not given): the cytotoxicity at 70.5 h was -10.2%.

Take `N#CC1(NC(=O)c2c(F)ccc(OC(F)F)c2F)CCOCC1`: the cytotoxicity at 70.5 h was -9.56%.

`CCC(C)NC(=O)Nc1cccc(OC)c1` (stereo not given): the cytotoxicity at 70.5 h was -5.26%.

Regarding `Cc1csc(CCNC(=O)N2CCC(C(N)=O)CC2)n1`, the cytotoxicity at 70.5 h is -16.7%.

`O=C(CCc1nc(-c2ccsc2)no1)NCC1CCN(C2CC2)C1` (stereo not given): the cytotoxicity at 70.5 h worked out at 7.83%.

`CN(C)C(=O)Cn1cnc2c(Br)cccc2c1=O`: the cytotoxicity at 70.5 h was -10.4%.

As to `Cc1nnc(CN(Cc2ccco2)Cc2cccc3c2OCO3)n1C`, the cytotoxicity at 70.5 h was -6.18%.

Turning to `CN(CCC#N)C(=O)Cn1cnc2c(Br)cccc2c1=O`, the cytotoxicity at 70.5 h is -1.58%.

For `COc1ccc(-c2cnc(CN(CC(N)=O)C3CCCC3)o2)cc1`, the cytotoxicity at 70.5 h is -11.2%.

For the compound `NC(=O)CN(Cc1ncc(-c2ccc(Cl)cc2)o1)C1CCCC1`, the cytotoxicity at 70.5 h was -7.75%.

`Nc1nccnc1C(=O)NC1CCCN(Cc2c(F)cccc2F)C1` (stereo not given): the cytotoxicity at 70.5 h is -16.3%.

`CCOc1ccccc1C(=O)NCc1nncn1C1CC1`: the cytotoxicity at 70.5 h came out at 3.5%.

Consider `CCNC(=O)C1CCN(Cc2ccccc2OCC(F)(F)F)CC1`, for which the cytotoxicity at 70.5 h was -4.11%.

In the case of `COc1ccc(C)nc1NC(=O)Cc1c(C)nn(C)c1C`, the cytotoxicity at 70.5 h was -0.279%.

Regarding `NC(=O)NC1CCN(Cc2ccccc2OCC(F)(F)F)CC1`, the cytotoxicity at 70.5 h is -4.28%.

As to `COc1ccc(C)c(NC(=O)NCc2ncnn2C)c1`, the cytotoxicity at 70.5 h came out at 3.43%.

Regarding `O=C(NCc1nncn1C1CC1)c1cccnc1Oc1ccccc1`, the cytotoxicity at 70.5 h was -0.0708%.

With `N#CC1(NC(=O)c2ccc(F)cc2OC(F)F)CCOCC1`, the cytotoxicity at 70.5 h is -10.6%.

For `COc1ccc(Br)c(NC(=O)NCc2ncnn2C)c1`, the cytotoxicity at 70.5 h was -9.33%.

As to `COc1ncc(NCc2ccsc2)cc1C(N)=O`, the cytotoxicity at 70.5 h stood at 3.63%.

Take `COc1ncc(NCc2cccc(C#N)c2)cc1C(N)=O`: the cytotoxicity at 70.5 h was -1.66%.

As for `O=C(NCc1nncn1C1CC1)c1ccccc1OCC1CC1`, the cytotoxicity at 70.5 h is -5.93%.

For the compound `NCC(CO)Cc1ccc(C(F)(F)F)cc1` (stereo not given), the cytotoxicity at 70.5 h was determined as 4.66%.

Consider `COC(=O)c1ccc(N(C(=O)c2cc(Cl)ccn2)C(C)C)c(C)c1`, for which the cytotoxicity at 70.5 h is -2.71%.

On to `Cc1cccc(NCCOc2cccc(C#N)c2)c1C(N)=O`, for which the cytotoxicity at 70.5 h is 16.4%.

Consider `CC(CO)NC(=O)Nc1ccc(COC2CCCC2)cc1` (stereo not given), for which the cytotoxicity at 70.5 h is -2.03%.

For `Cc1nn(C)c(C)c1OCC(=O)NCC(O)Cc1ccccc1` (stereo not given), the cytotoxicity at 70.5 h was 1.56%.

With `Cc1nn(C)c(C)c1OCC(=O)NCC(O)c1ccsc1` (stereo not given), the cytotoxicity at 70.5 h is 0.375%.

For `Cc1nn(C)c(C)c1OCC(=O)NCc1cccc(CO)c1`, the cytotoxicity at 70.5 h turned out to be 2.69%.

`O=C(CCCNCc1ccc(Cl)c2cccnc12)NC1CC1`: the cytotoxicity at 70.5 h was -1.79%.

With `CC(C)N(CCSc1ncnc2[nH]ncc12)C(C)C`, the cytotoxicity at 70.5 h is -1.52%.

On to `Cc1nn(C)c(C)c1OCC(=O)NCC(O)c1ccco1` (stereo not given), for which the cytotoxicity at 70.5 h is 16%.

On to `Cc1ccc(N2CCCC(NCCS(C)(=O)=O)C2)nn1` (stereo not given), for which the cytotoxicity at 70.5 h was -1.77%.

As to `CC(C)=CCNC1CCCN(c2ccc(C)nn2)C1` (stereo not given), the cytotoxicity at 70.5 h was -1.28%.

Turning to `N#Cc1cc(CSCCN2CCOCC2)ccc1F`, the cytotoxicity at 70.5 h was -13.8%.

Consider `COCCn1cc(C(=O)N2CCCC2c2noc(C)n2)ccc1=O` (stereo not given), for which the cytotoxicity at 70.5 h worked out at 40.8%.

With `Cc1nc(C)n(CC2CCCCN2CCCS(C)(=O)=O)n1` (stereo not given), the cytotoxicity at 70.5 h is 9.04%.

Turning to `Cc1nc(C)n(CC2CCCCN2CCCO)n1` (stereo not given), the cytotoxicity at 70.5 h was 9.77%.

As for `COCCn1cc(C(=O)N2CCCC2c2ccc(F)cc2)ccc1=O` (stereo not given), the cytotoxicity at 70.5 h is -1.67%.

In the case of `COCCn1cc(C(=O)N2CCCC2c2ccccc2C)ccc1=O` (stereo not given), the cytotoxicity at 70.5 h is -7.56%.

For `c1ccc(-c2nc(CN3CCOC(Cn4cccn4)C3)cs2)cc1` (stereo not given), the cytotoxicity at 70.5 h is -2.87%.

Regarding `Cc1cc(Br)oc1C(=O)N1CCN(CC(N)=O)CC1`, the cytotoxicity at 70.5 h is -1.55%.

Turning to `COc1cc(C)nc(N2CCN(C(=O)CCc3ccco3)CC2)n1`, the cytotoxicity at 70.5 h was -2.64%.

As to `NC(=O)CCn1ccc(NC(=O)c2ccc(OCC3CC3)cc2)n1`, the cytotoxicity at 70.5 h is -3.84%.

As to `Cc1ccc(C(=O)Nc2ccn(CCC(N)=O)n2)cc1`, the cytotoxicity at 70.5 h is -3.18%.

Take `CN1CCC(N(Cc2ccccc2F)C(=O)NCc2ccncc2)CC1`: the cytotoxicity at 70.5 h came to 30.5%.

In the case of `CCC(=O)N1CCN(C(=O)Nc2cccc(N3CCOCC3)c2)CC1`, the cytotoxicity at 70.5 h amounted to 2.85%.

Consider `CCOC(C)c1nc(CN2CCN(Cc3cccnc3)CC2)cs1` (stereo not given), for which the cytotoxicity at 70.5 h was -4.18%.

Consider `O=C(NCc1ccccc1CN1CCC(O)CC1)Nc1ccccn1`, for which the cytotoxicity at 70.5 h is -3.22%.

As to `c1cc(C2CCN(Cc3nc(-c4ccsc4)no3)CC2)[nH]n1`, the cytotoxicity at 70.5 h is -3.49%.

On to `O=C(CN1CCCCC1Cn1cccn1)NC1CCOCC1` (stereo not given), for which the cytotoxicity at 70.5 h was -6.42%.

For `Cn1cc(-c2nc(CN3CCOC(Cn4cccn4)C3)cs2)cn1` (stereo not given), the cytotoxicity at 70.5 h is -5.18%.

As to `CC(C)N(C)S(=O)(=O)N1CCCC1CC(=O)c1cccs1` (stereo not given), the cytotoxicity at 70.5 h was -0.315%.

For the compound `CCOc1ccccc1NC(C)C(=O)N(C)Cc1cccc(F)c1` (stereo not given), the cytotoxicity at 70.5 h was 6.19%.

Regarding `CCC(CNC(=O)c1ccccn1)N1CCc2ccccc2C1` (stereo not given), the cytotoxicity at 70.5 h is 10.5%.

Turning to `O=C(NCC1(N2CCOCC2)CCSC1)Nc1ccncc1` (stereo not given), the cytotoxicity at 70.5 h is -6.91%.

Take `CN(Cc1ccco1)C(=O)NCc1nnc2n1CCC2`: the cytotoxicity at 70.5 h was -8.06%.

As for `Cc1cc(C(=O)CN2C(=O)c3ccccc3CS2(=O)=O)c(C)[nH]1`, the cytotoxicity at 70.5 h is -6.26%.

Turning to `Cc1ccc(NC(C)C(=O)N(C)Cc2cccc(F)c2)cc1C(N)=O` (stereo not given), the cytotoxicity at 70.5 h was -4.3%.

Consider `CCOCCC(=O)NC1(c2cccc(Br)c2)CC1`, for which the cytotoxicity at 70.5 h is -3.83%.

With `CN(Cc1ccco1)Cc1ccccc1CNC(=O)c1csnn1`, the cytotoxicity at 70.5 h is -1.62%.

Turning to `CN(Cc1ccco1)Cc1ccccc1CNC(=O)c1cnccn1`, the cytotoxicity at 70.5 h is -6.66%.

Consider `N#Cc1cc(NC(=O)c2ccncc2)ccc1N1CCC(O)CC1`, for which the cytotoxicity at 70.5 h was -3.68%.

Take `C=C(C)CN1CCC(NC(=O)NCCc2ccccc2OC)CC1`: the cytotoxicity at 70.5 h is -7.86%.

In the case of `CC(=O)c1cccc(OCCCC(=O)N(C)CCC(F)(F)F)c1`, the cytotoxicity at 70.5 h was -4.24%.

For the compound `CN(Cc1ccco1)Cc1ccccc1CNC(=O)c1c[nH]nn1`, the cytotoxicity at 70.5 h is -1.03%.

On to `COc1ccc(F)cc1C(C)NC(=O)Nc1nncs1` (stereo not given), for which the cytotoxicity at 70.5 h turned out to be 4.1%.

Consider `COCc1ccccc1NC(=O)NC(C)c1ccc(C)o1` (stereo not given), for which the cytotoxicity at 70.5 h was -3.14%.

Turning to `CS(=O)(=O)NCCNC(=O)c1cnc(-c2ccccc2)nc1`, the cytotoxicity at 70.5 h is -4.82%.

Consider `N#Cc1ccc(CNC(=O)NC2CCN(c3ncccn3)CC2)cc1`, for which the cytotoxicity at 70.5 h is -7.8%.

On to `Cc1cc(C(=O)Nc2cccn(Cc3ccccc3)c2=O)no1`, for which the cytotoxicity at 70.5 h turned out to be 1.5%.
